Laboratory results published in PMC2074469.

How the values were obtained:
[1] = system: adrenal gland steroidogenesis; conditions: cited from earlier work
[2] = cited from earlier work
aromatase [3] = target: T1, aromatase (Homo sapiens, UniProt P11511); conditions: cited from earlier work
T1 construct: from tissue; host or cells: peripheral tissues of healthy post-menopausal female volunteers (in vivo; serum oestrogens measured)
T1 sequence (P11511 1-503): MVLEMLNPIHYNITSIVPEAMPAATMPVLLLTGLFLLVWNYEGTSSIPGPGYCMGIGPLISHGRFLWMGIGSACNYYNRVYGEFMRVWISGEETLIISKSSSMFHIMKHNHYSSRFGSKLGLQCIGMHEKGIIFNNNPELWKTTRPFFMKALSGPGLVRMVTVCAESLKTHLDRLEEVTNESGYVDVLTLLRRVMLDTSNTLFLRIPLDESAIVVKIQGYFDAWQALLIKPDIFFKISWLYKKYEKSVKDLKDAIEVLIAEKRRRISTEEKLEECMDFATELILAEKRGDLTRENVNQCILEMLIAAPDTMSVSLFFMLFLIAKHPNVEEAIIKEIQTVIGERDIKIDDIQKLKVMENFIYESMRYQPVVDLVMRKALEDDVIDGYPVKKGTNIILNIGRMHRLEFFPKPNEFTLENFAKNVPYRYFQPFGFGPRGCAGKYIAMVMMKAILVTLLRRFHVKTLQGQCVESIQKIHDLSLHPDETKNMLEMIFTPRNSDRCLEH

aromatase [4] = target: T1, aromatase; experiment: Serum oestradiol suppression in healthy post-menopausal female volunteers (trials 1 and 2); assay type: in vivo; conditions: for women with serum oestradiol below the limit of detection of the assay: limit of detection 3 pmol l-1; for mean BS oestradiol concentration 24 h after dosing on days 13 and 14, adjusted geometric mean / BS oestradiol AUC days 1-14, adjusted geometric mean: baseline-scaled; for BS oestradiol AUC days 1-14, adjusted geometric mean: normalised by time; for mean post-dose scaled oestradiol suppression compared with baseline: mean of 24 h after doses on days 13 and 14
Procedure: (§1) Summary Two multiple-dose studies were conducted in healthy post-menopausal female volunteers to investigate the pharmacokinetics and effects on endocrinology of Arimidex (ZD1033). Volunteers in the first trial were dosed with 3 mg of ZD1033 daily over 10 days to assess the effects on endocrinology of ZD1033 and establish the pharmacokinetic profile. In the second trial volunteers received 14 daily doses of either 0.5 or 1.0 mg of ZD1033 to assess the pharmacokinetics of ZD1033 and the effects of low doses of ZD1033 on serum oestradiol concentrations. […] Keywords: Arimidex; aromatase inhibitor; oestrogen Breast cancer is the most common type of cancer in women, accounting for 10% of all female cancers. […] ZD1033 is an achiral benzyltriazole derivative, 2,2[5-(1 H- 12,4-triazol- I -ylmethyl)- 1,3-phenylene] bis (2- methyl-propriononitrile) (Figure 1). […] ZD1033 is currently being evaluated in identical phase III efficacy and tolerability studies vs megestrol acetate in post- menopausal women with advanced breast cancer in the USA and Europe. This paper describes two studies that investigated the pharmacokinetic profile, selectivity, tolerability and efficacy in oestradiol suppression of multiple doses of ZD1033. The objective of the studies was to determine the minimum dose required for maximal suppression of circulating oestradiol, while retaining selectivity for the aromatase enzyme. […] Methods The two trials were randomised, double-blind, placebo- controlled multiple-dose studies in healthy post-menopausal female volunteers aged between 45 and 62 years (inclusive). Both trials had the same entry criteria and were of similar design. In the first study (trial 1), a total of eight volunteers were given eight doses of 3 mg of ZD1033 over 10 days to assess tolerability, pharmacokinetics and effects on endocrinology. In the second study (trial 2) a total of 14 volunteers were given 0.5 and 1 mg doses of ZD1033 daily for 14 days to assess the tolerability, pharmacokinetics and effect on serum oestradiol concentrations only. […] The key inclusion criteria were: at least one intact ovary; cervical smear negative for malignancy within the previous 12 months; normal clinical laboratory parameters and; normal clinical examination. Key exclusion criteria were a history of malignant breast disease or previous hysterectomy as a result of malignancy. […] A dose of 3 mg ZD1033 or matching placebo was then given on the following 7 consecutive days (study days 4-10). […] Samples for assay of serum aldosterone, cortisol, 17- hydroxyprogesterone (17-HP), dehydroepiandrosterone sul- phate (DHEA-S), luteinising hormone (LH), FSH and adrenocorticotrophic hormone (ACTH) were collected before and 3 h after dosing on study days 1 and 10 of both treatment periods. Additional samples for cortisol assay were also collected before dosing on study days 3, 5, 7 and 9 in both treatment periods. An ACTH stimulation test was performed 3 h after the dose on study day 10.

aromatase [5] = target: T1, aromatase; experiment: Serum oestrone suppression, trial 1 (3 mg of ZD1033 vs placebo); assay type: in vivo
Procedure: as §1

adrenal steroidogenesis = experiment: Serum adrenal steroid concentrations, trial 1 (cortisol, aldosterone, 17-HP, androstenedione, DHEA-S); assay type: in vivo, human
Procedure: as §1

gonadotrophin release = experiment: Serum pituitary hormones, trial 1 (ACTH, LH, FSH); assay type: in vivo, human; conditions: for scaled FSH: percentage change of scaled geometric mean relative to placebo / scaled LH: percentage change of scaled geometric mean relative to placebo: 3 mg
Procedure: as §1

[6] = system: steroid response to ACTH challenge; experiment: ACTH stimulation test (synacthen), trial 1 study day 10; assay type: in vivo, human; conditions: 3 mg, 30 and 60 min after ACTH
Procedure: (§2) Summary Two multiple-dose studies were conducted in healthy post-menopausal female volunteers to investigate the pharmacokinetics and effects on endocrinology of Arimidex (ZD1033). Volunteers in the first trial were dosed with 3 mg of ZD1033 daily over 10 days to assess the effects on endocrinology of ZD1033 and establish the pharmacokinetic profile. In the second trial volunteers received 14 daily doses of either 0.5 or 1.0 mg of ZD1033 to assess the pharmacokinetics of ZD1033 and the effects of low doses of ZD1033 on serum oestradiol concentrations. […] Keywords: Arimidex; aromatase inhibitor; oestrogen Breast cancer is the most common type of cancer in women, accounting for 10% of all female cancers. […] ZD1033 is an achiral benzyltriazole derivative, 2,2[5-(1 H- 12,4-triazol- I -ylmethyl)- 1,3-phenylene] bis (2- methyl-propriononitrile) (Figure 1). […] ZD1033 is currently being evaluated in identical phase III efficacy and tolerability studies vs megestrol acetate in post- menopausal women with advanced breast cancer in the USA and Europe. This paper describes two studies that investigated the pharmacokinetic profile, selectivity, tolerability and efficacy in oestradiol suppression of multiple doses of ZD1033. The objective of the studies was to determine the minimum dose required for maximal suppression of circulating oestradiol, while retaining selectivity for the aromatase enzyme. […]

[7] = human, in vivo
Procedure: as §2

clinical = conditions: female, human, plasma, oral; for half-life: mean half-life
[8] = 3 mg vs placebo, not statistically significant

CCC1(c2ccc(N)cc2)CCC(=O)NC1=O (centres unmarked) [aminoglutethimide]
selectivity for the aromatase enzyme ([1]; 250 mg q.i.d., also inhibits adrenal gland steroidogenesis, ref Lonning and Johannessen, 1991): non-selective
toxicity ([2]; ref Lonning and Johannessen, 1991): marked toxicity

N#Cc1ccc(C(c2ccc(C#N)cc2)n2cncn2)cc1 [letrozole]
reduction in oestradiol levels (aromatase [3]; ref Iveson et al., 1993): up to 86%
selectivity: interference with adrenal steroidogenesis ([1]; in vivo): no reports of letrozole interfering

C[C@]12CCC(=O)C(O)=C1CC[C@@H]1[C@@H]2CC[C@]2(C)C(=O)CC[C@@H]12 [formestane]
oestradiol suppression (aromatase [3]; in vivo): 49- 64%
adverse reactions ([2]; 250 mg i.m. once every 2 weeks, ref Hoffken et al., 1993): injection site reactions

CC(C)(C#N)c1cc(Cn2cncn2)cc(C(C)(C)C#N)c1 [ZD1033, 2,2[5-(1 H-12,4-triazol-I -ylmethyl)-1,3-phenylene] bis (2-methyl-propriononitrile)]
reduction in serum oestradiol levels (to the limit of detection of the available assay) (aromatase [4]; 1 mg daily p.o.): > 80%
reduction in concentration of serum oestradiol of baseline following multiple dosing (aromatase [4]; all three doses (0.5, 1.0, 3 mg daily)): approximately 80%
minimal dose required for maximal suppression of oestradiol (aromatase [4]; from number of volunteers below assay limit of detection 24 h after last dose): 1.0 mg
decrease of oestradiol concentration compared with placebo values (aromatase [4]; trial 1, 3 mg daily days 4-10, by day 8, P = 0.004): approximately 80%
oestradiol suppression compared with placebo values (aromatase [4]; trial 1, 3 mg, 24 h after the last dose): 70%
reduction of mean serum oestradiol concentration compared with placebo (aromatase [4]; trial 1, 3 mg, by 48 h after the first dose, P = 0.001): approximately 70%
recovery of serum oestradiol after first dose (aromatase [4]; trial 1, single 3 mg dose, up to 72 h): no recovery apparent by 72 h
reduction of mean scaled oestradiol AUC 24 h after dosing on days 1-14 (aromatase [4]; trial 2, 0.5 mg daily): 82%
women with serum oestradiol below the limit of detection of the assay (aromatase [4]; trial 2, 0.5 mg daily, 24 h after the last dose): one out of six
mean post last dose oestradiol concentration (aromatase [4]; trial 2, 0.5 mg daily, baseline mean 46 pmol l-1): 5.9 pmol/L
mean BS oestradiol concentration 24 h after dosing on days 13 and 14, adjusted geometric mean (aromatase [4]; trial 2, 0.5 mg daily): 0.156
BS oestradiol AUC days 1-14, adjusted geometric mean (aromatase [4]; trial 2, 0.5 mg daily): 0.175
mean post-dose scaled oestradiol suppression compared with baseline (aromatase [4]; trial 2, 0.5 mg daily): 84%
reduction of mean scaled oestradiol AUC 24 h after dosing on days 1-14 (aromatase [4]; trial 2, 1.0 mg daily): 84%
women with serum oestradiol below the limit of detection of the assay (aromatase [4]; trial 2, 1 mg daily, 24 h after the last dose): five out of seven
mean post last dose oestradiol concentration (aromatase [4]; trial 2, 1.0 mg daily, baseline mean 28 pmol l-1): 3.2 pmol/L
mean BS oestradiol concentration 24 h after dosing on days 13 and 14, adjusted geometric mean (aromatase [4]; trial 2, 1.0 mg daily): 0.138
BS oestradiol AUC days 1-14, adjusted geometric mean (aromatase [4]; trial 2, 1.0 mg daily): 0.160
mean post-dose scaled oestradiol suppression compared with baseline (aromatase [4]; trial 2, 1.0 mg daily): 86%
duration of suppression of mean oestradiol concentrations (aromatase [4]; trial 2, 0.5 and 1 mg daily for 14 days): remained suppressed from 3 h after the first dose to 6 days after the last dose
treatment effect (ratio 0.5 - 1.0 mg), BS oestradiol AUC days 1-14 (aromatase [4]; trial 2, 95% confidence (0.52, 2.30), P 0.794): 1.09
treatment effect (ratio 0.5 - 1.0 mg), mean BS oestradiol days 13 and 14 (aromatase [4]; trial 2, 95% confidence (0.55, 2.33), P 0.713): 1.13
recovery in oestradiol after the last dose (aromatase [4]; up to 144 h after the last dose): no recovery
scaled oestrone: percentage reduction in geometric mean relative to placebo (aromatase [5]; 96 h after dose on day 10): 39.7%
scaled oestrone: percentage reduction in geometric mean relative to placebo (aromatase [5]; Day 2): 36.2%
scaled oestrone: percentage reduction in geometric mean relative to placebo (aromatase [5]; Day 3): 29.4%
scaled oestrone: percentage reduction in geometric mean relative to placebo (aromatase [5]; Day 4): 34.6%
scaled oestrone: percentage reduction in geometric mean relative to placebo (aromatase [5]; Day 6): 41.1%
scaled oestrone: percentage reduction in geometric mean relative to placebo (aromatase [5]; Day 8): 34.8%
scaled oestrone: percentage reduction in geometric mean relative to placebo (aromatase [5]; Day 10): 44.9%
maximal suppression of mean serum oestrone compared with placebo values (aromatase [5]; from study day 6 onwards): approximately 40%
recovery of serum oestrone after the last dose (aromatase [5]; up to 96 h after the last dose): no recovery apparent by 96 h after the last dose
alteration in mean serum concentration of DHEA-S relative to placebo (adrenal steroidogenesis; 3 mg): No clinically significant alterations
change in mean serum concentration of cortisol (adrenal steroidogenesis; 3 mg vs placebo): No statistically significant changes
change in mean serum concentration of 17-HP (adrenal steroidogenesis; [8]): no consistent changes
change in mean serum concentration of aldosterone (adrenal steroidogenesis; [8]): no consistent changes
change in mean serum concentration of androstenedione (adrenal steroidogenesis; [8]): no consistent changes
scaled 17-HP: percentage change of scaled geometric mean relative to placebo (adrenal steroidogenesis; 3 mg, Day 1, 3 h after dose): -26.9%
scaled aldosterone: percentage change of scaled geometric mean relative to placebo (adrenal steroidogenesis; 3 mg, Day 1, 3 h after dose): -12.9%
scaled 17-HP: percentage change of scaled geometric mean relative to placebo (adrenal steroidogenesis; 3 mg, Day 10, 3 h after dose): 48.9%
scaled aldosterone: percentage change of scaled geometric mean relative to placebo (adrenal steroidogenesis; 3 mg, Day 10, 3 h after dose): 21.0%
scaled 17-HP: percentage change of scaled geometric mean relative to placebo (adrenal steroidogenesis; 3 mg, Day 10, pre-dose): 3.8%
scaled aldosterone: percentage change of scaled geometric mean relative to placebo (adrenal steroidogenesis; 3 mg, Day 10, pre-dose): 24.6%
effect on ACTH, LH or FSH (gonadotrophin release; 3 mg vs placebo): None of the data suggested an effect
scaled FSH: percentage change of scaled geometric mean relative to placebo (gonadotrophin release; Day 1, 3 h after dose): 0.01%
scaled LH: percentage change of scaled geometric mean relative to placebo (gonadotrophin release; Day 1, 3 h after dose): -9.5%
scaled FSH: percentage change of scaled geometric mean relative to placebo (gonadotrophin release; Day 10, 3 h after dose): -3.4%
scaled LH: percentage change of scaled geometric mean relative to placebo (gonadotrophin release; Day 10, 3 h after dose): 12.2%
scaled FSH: percentage change of scaled geometric mean relative to placebo (gonadotrophin release; Day 10, pre-dose): 1.54%
scaled LH: percentage change of scaled geometric mean relative to placebo (gonadotrophin release; Day 10, pre-dose): -9.3%
difference of 17-HP after ACTH stimulation from values obtained on placebo [6]: up to 12%
difference of cortisol after ACTH stimulation from values obtained on placebo [6]: up to 12%
changes in blood pressure, pulse rate or ECG [7]: no evidence of changes
Cmax (clinical; 0.5 mg): 5.97 ng/mL
Tmax (clinical; 0.5 mg): 2 h
half-life (clinical; 0.5 mg): 2740 min
Cmax (clinical; 1 mg): 13.7 ng/mL
Tmax (clinical; 1 mg): 2 h
half-life (clinical; 1 mg): 2440 min
Tmax (clinical; 3 mg): 3 h
half-life (clinical; 3 mg, after the first dose of 3 mg): 3040 min
half-life (clinical; 3 mg, after the last dose of 3 mg): 2720 min
